{
  "source": "patent US20050138675A1",
  "about": "“Method for determining cardiotoxicity” (Pfizer Inc., priority 2003, published 2005)",
  "tested_on": "cardiac ventricular tissue",
  "conditions": "at least 2-fold relative to control",
  "excerpt": "Male Sprague-Dawley rats weighing between 175-220 grams were used for all studies. Animals were purchased from Charles River Laboratories (Wilmington, Mass.) and allowed to acclimate for one week prior to use. All animals were given food and water ad libitum, and housed under a 12-hour light/12-hour dark cycle. The animals were housed in conventional plastic bottom cages (2 animals/cage) with corncob bedding. All dosing with test compounds was a single acute injection by the intraperitoneal route, in normal saline, with a 20×¾″ disposable needle attached to a 1 cc disposable syringe. These animals were euthanized by a 150 mg/kg intraperitoneal injection of Nembutal prior to collection of heart tissue.\nDose range-finding studies were completed to determine a xenobiotic dose that would produce signs of cardiotoxicity such as elevated serum troponins, creatine kinase isoenzymes, or histo-pathological tissue changes, without causing overt general toxicity. Comprehensive literature reviews were also used to select doses. […] Six or twenty-four hours later, animals were euthanized with a lethal intraperitoneal dose of Nembutal solution. Biopsy punches were used to remove approximately […] of ventricular tissue for subsequent RNA isolation and gene expression analysis. Total RNA was isolated from the samples using a Qiagen RNAeasy protocol (Valencia, Calif.). In this procedure, RNA is captured on a solid phase column, then washed with a series of solutions to purify the sample. In the last step, RNA is eluted from the column with RNAse free water. RNA quality and quantity was then checked with an optical density reading at 260/280 wavelengths, and an aliquot of RNA was run on an RNA denaturing gel. High quality RNA should have an OD 260/280 ratio of 2, and the denaturing gel should show two distinct ribosomal RNA bands.\nSynthesis of double stranded cDNA from the total RNA isolated was the first step, which involves the incorporation of a T7-(dT)24 primer into the sequence, with subsequent second strand synthesis which yields a double stranded template for the in vitro transcription (IVT) reaction. The resulting cDNA was run in an IVT reaction using an Enzo BioArray High Yield RNA transcript labeling kit (Enzo Life Sciences, Inc. Farmingdale, N.Y.), during which a biotin label was incorporated into the complementary RNA (cRNA) sequence. This step also amplified the product by generating approximately 40 transcripts per cDNA substrate. After the IVT reaction, cRNA was fragmented by metallic fragmentation, and a small portion of the sample was run on a 1% agarose gel in order to visualize the fragmentation pattern. The range should be between 35 to 200 bases. Four samples from each group showing the highest purity and quality results were pooled for hybridization onto one Genechip to greatly reduce experimental costs. Genes of interest that are found through the use of GeneChip technology, will then be verified using real time PCR techniques on each individual sample.\nNext, the cRNA was hybridized to the RG U34A GeneChip oligonucleotide array (Affymetrix Inc, Santa Clara, Calif.). An aliquot of the fragmented cRNA was mixed with control components, injected into the array, and the filled array was allowed to incubate at 45° C. for 16 hours in an Affymetrix oven, which rotates the samples continuously during incubation. The next morning, the array was taken from the oven and the sample was removed and frozen at −80° C. for possible future use. That is, in the event of a defective chip, the hybridization solution can be re-used. The array chamber was then filled with a wash buffer, and placed in an automated fluid exchange system. The fluidics station controls the washing and staining of the probe array with the fluorescently labeled streptavidin stain solution and an antibody solution. After the staining process was complete the chips were scanned by an Agilent GeneArray laser scanner (Agilent, Palo Alto, Calif.).",
  "key": {"[1]": {"conditions": "6 hour after single i.p. dose (DIG 20, DOX 30, ISO 70, LPS 10 mg/kg)"}, "[2]": {"conditions": "24 hour after single i.p. dose (DIG 20, DOX 30, ISO 70, LPS 10 mg/kg)"}},
  "data": [
    {"substance": "lipopolysaccharide [LPS]", "values": [
      {"measurement": "AA957003 intercellular calcium-binding protein expression, up or down", "setting": "[1]", "result": "up"},
      {"measurement": "AI176456 metallothionein expression, up or down", "setting": "[1]", "result": "up"},
      {"measurement": "J02722 heme oxygenase (hsp32) expression, up or down", "setting": "[1]", "result": "up"},
      {"measurement": "X01118 gamma-rANP expression, up or down", "setting": "[1]", "result": "down"},
      {"measurement": "X89225 L-like neutral amino acid transport protein expression, up or down", "setting": "[1]", "result": "up"},
      {"measurement": "AA892801 EST expression, up or down", "setting": "[2]", "result": "up"},
      {"measurement": "AA899106 cyclin D2 expression, up or down", "setting": "[2]", "result": "down"},
      {"measurement": "AB005743 fatty acid transporter expression, up or down", "setting": "[2]", "result": "up"},
      {"measurement": "AF016296 neuropilin expression, up or down", "setting": "[2]", "result": "down"},
      {"measurement": "AI008852 EST expression, up or down", "setting": "[2]", "result": "up"},
      {"measurement": "AI170776 GRB2 expression, up or down", "setting": "[2]", "result": "up"},
      {"measurement": "AI638989 EST expression, up or down", "setting": "[2]", "result": "down"},
      {"measurement": "D85183 SHPS-1 expression, up or down", "setting": "[2]", "result": "up"},
      {"measurement": "M57276 leukocyte antigen MRC-OX44 expression, up or down", "setting": "[2]", "result": "up"},
      {"measurement": "U14950 synapse-associated protein 97 expression, up or down", "setting": "[2]", "result": "up"},
      {"measurement": "U68272 interferon gamma receptor expression, up or down", "setting": "[2]", "result": "up"},
      {"measurement": "X52140 integrin alpha-1 expression, up or down", "setting": "[2]", "result": "down"},
      {"measurement": "X71127 complement protein C1q beta chain expression, up or down", "setting": "[2]", "result": "up"}
    ]}
  ]
}
